Measurements reported in patent publication US20240025919A1, “AZA-TETRACYCLIC OXAZEPINE COMPOUNDS AND USES THEREOF” (Genentech, Inc., priority 2022, published 2024).
pIC50: −log10 of the molar value. Read-outs that look alike come from different tables or passages of the source.

Legend:
KRAS WT = KRAS WT (Homo sapiens (Human), UniProt P01116); experiment: KRAS WT Biochemical Assay, BODIPY-GDP Exchange TR-FRET (Example 501; 3 nM KRAS WT, 3 nM SOS1, 60-minute incubation)
Procedure, shortened: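 SOS1-mediated exchange assay: 3 nM biotin-KRAS WT with terbium-streptavidin, started with 3 nM SOS1 and 300 nM BODIPY-GDP, HEPES pH 7.5 with MgCl2. TR-FRET (520/490 nm) read after 60 min; normalized to DMSO and full-inhibition control, IC50 from 4-parameter Hill fit.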

KRAS G12D = KRAS G12D (Homo sapiens (Human), UniProt P01116, G12D); experiment: KRAS G12D LoEnz Biochemical Assay, BODIPY-GDP Exchange TR-FRET (SOS1-mediated nucleotide exchange); conditions: read-out: KRas (G12D) GDP HTRF IC50
Sequence of KRAS G12D (P01116-2 other isoform, or with tags, fused parts or gaps G12D): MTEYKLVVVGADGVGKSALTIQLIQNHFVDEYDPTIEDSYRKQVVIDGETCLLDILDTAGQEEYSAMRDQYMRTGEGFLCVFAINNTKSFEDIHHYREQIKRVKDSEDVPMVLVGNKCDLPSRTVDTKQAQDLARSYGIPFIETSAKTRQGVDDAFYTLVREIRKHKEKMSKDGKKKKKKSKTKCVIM

[1] = read-out: KRas(wt) GDP HTRF IC50

Sequence of KRAS WT (P01116-2 other isoform, or with tags, fused parts or gaps): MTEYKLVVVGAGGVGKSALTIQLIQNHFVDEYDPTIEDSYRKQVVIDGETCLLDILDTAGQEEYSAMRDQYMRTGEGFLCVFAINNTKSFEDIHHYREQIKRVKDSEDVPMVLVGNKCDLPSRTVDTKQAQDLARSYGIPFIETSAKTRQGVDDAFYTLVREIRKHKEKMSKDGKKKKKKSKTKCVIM

Molecule `Cc1cc(N)nc(-c2nc3c4c(nc(OC[C@@]56CCCN5CC5(CC5(F)F)C6)nc4c2F)N2C[C@H]4CC[C@H](N4)[C@H]2CO3)c1C(F)(F)F` (stereo partly drawn) [Compound 42, 6-((5aS,6S,9R)-12-(((7a'S)-2,2-difluorodihydro-1′H,3′H-spiro[cyclopropane-1,2′-pyrrolizin]-7a′(5′H)-yl)methoxy)-1-fluoro-5a,6,7,8,9,10-hexahydro-5H-4-oxa-3,10a,11,13,14-pentaaza[6,9]methanonaphtho[1,8-ab]heptalen-2-yl)-4-methyl-5-(trifluoromethyl)pyridin-2-amine] has a pIC50 (KRAS WT; [1]) of 7.34 and a pIC50 (KRAS G12D) of 9.33.
`Cc1cc(N)nc(-c2nc3c4c(nc(OC[C@@]56CCCN5CC5(CC5(F)F)C6)nc4c2F)N2C[C@H]4CC[C@H](N4)[C@H]2[C@H](C)O3)c1C(F)(F)F` (stereo partly drawn) [Compound 47, 6-((5S,5aS,6S,9R)-12-(((7a′S)-2,2-difluorodihydro-1′H,3′H-spiro[cyclopropane-1,2′-pyrrolizin]-7a′(5′H)-yl)methoxy)-1-fluoro-5-methyl-5a,6,7,8,9,10-hexahydro-5H-4-oxa-3,10a,11,13,14-pentaaza[6,9]methanonaphtho[1,8-ab]heptalen-2-yl)-4-methyl-5-(trifluoromethyl)pyridin-2-amine] gave a pIC50 (KRAS WT; [1]) of 8.35 and a pIC50 (KRAS G12D) of 9.35.
Work on `C#Cc1cccc2cc(O)cc(-c3nc4c5c(nc(OC[C@@]67CCCN6C[C@H](F)C7)nc5c3F)N3C[C@H]5CC[C@H](CN5CCCF)[C@H]3CO4)c12` [Compound 50, 5-Ethynyl-4-((5aS,6R,9R)-1-fluoro-14-(3-fluoropropyl)-12-(((2R,7aS)-2-fluorotetrahydro-1H-pyrrolizin-7a(5H)-yl)methoxy)-5a,6,7,8,9,10-hexahydro-5H-4-oxa-3,10a,11,13,14-pentaaza-6,9-ethanonaphtho[1,8-ab]heptalen-2-yl)naphthalen-2-ol] yielded a pIC50 (KRAS WT; [1]) of 8.77 and a pIC50 (KRAS G12D) of 9.62.
For `C#Cc1cccc2cc(O)cc(-c3nc4c5c(nc(OC[C@@]67CCCN6C[C@H](F)C7)nc5c3F)N3C[C@H]5CC[C@H](CN5CC5COC5)[C@H]3CO4)c12` [Compound 51, 5-ethynyl-4-((5aS,6R,9R)-1-fluoro-12-(((2R,7aS)-2-fluorotetrahydro-1H-pyrrolizin-7a(5H)-yl)methoxy)-14-(oxetan-3-ylmethyl)-5a,6,7,8,9,10-hexahydro-5H-4-oxa-3,10a,11,13,14-pentaaza-6,9-ethanonaphtho[1,8-ab]heptalen-2-yl)naphthalen-2-ol], the pIC50 (KRAS WT; [1]) was 8.25 and the pIC50 (KRAS G12D) was 9.52.
With `Cc1cc(N)nc(-c2nc3c4c(ncnc4c2F)N2C[C@H]4CC[C@H](N4)[C@H]2CO3)c1C(F)(F)F` [Compound 52, 6-((5aS,6S,9R)-1-Fluoro-5a,6,7,8,9,10-hexahydro-5H-4-oxa-3,10a,11,13,14-pentaaza-6,9-methanonaphtho[1,8-ab]heptalen-2-yl)-4-methyl-5-(trifluoromethyl)pyridin-2-amine] the pIC50 (KRAS WT; [1]) was 3.71 and the pIC50 (KRAS G12D) was 5.67.
Molecule `Fc1c(-c2cccc3cccc(Cl)c23)nc2c3c(ncnc13)N1C[C@H]3CC[C@H](N3)[C@H]1CO2` [Compound 53, (5aS,6S,9R)-2-(8-Chloronaphthalen-1-yl)-1-fluoro-5a,6,7,8,9,10-hexahydro-5H-4-oxa-3,10a,11,13,14-pentaaza-6,9-methanonaphtho[1,8-ab]heptalene] has a pIC50 (KRAS WT; [1]) of 3.70 and a pIC50 (KRAS G12D) of 4.65.
For `Cc1cc(N)c(F)c(-c2nc3c4c(nc(OC[C@@]56CCCN5C[C@H](F)C6)nc4c2F)N2C[C@H]4CC[C@H](N4)[C@H]2[C@H](C)O3)c1CC(F)(F)F` [Compound 182, 2-Fluoro-3-((5S,5aS,6S,9R)-1-fluoro-12-(((2R,7aS)-2-fluorotetrahydro-1H-pyrrolizin-7°(5H)-yl)methoxy)-5-methyl-5°,6,7,8,9,10-hexahydro-5H-4-oxa-3,10°,11,13,14-pentaaza-6,9-methanonaphtho[1,8-ab]heptalen-2-yl)-5-methyl-4-(2,2,2-trifluoroethyl)aniline], the pIC50 (KRAS WT; read-out: KRas HTRF IC50) was 7.47 and the pIC50 (KRAS G12D) was 9.57.
For `C[C@@H]1Oc2nc(-c3cc(N)c(F)c(F)c3CC(F)(F)F)c(F)c3nc(OC[C@@]45CCCN4C[C@H](F)C5)nc(c23)N2C[C@H]3CC[C@H](N3)[C@@H]12` [Compound 183, 2,3-Difluoro-5-((5S,5aS,6S,9R)-1-fluoro-12-(((2R,7aS)-2-fluorotetrahydro-1H-pyrrolizin-7a(5H)-yl)methoxy)-5-methyl-5a,6,7,8,9,10-hexahydro-5H-4-oxa-3,10a,11,13,14-pentaaza-6,9-methanonaphtho[1,8-ab]heptalene-2-yl)-4-(2,2,2-trifluoroethyl)aniline], the pIC50 (KRAS WT; read-out: KRas HTRF IC50) was 8.35 and the pIC50 (KRAS G12D) was 9.68.
Molecule `C[C@@H]1Oc2nc(-c3cc(N)c(=O)n(C)c3C(F)(F)F)c(F)c3nc(OC[C@@]45CCCN4C[C@H](F)C5)nc(c23)N2C[C@H]3CC[C@H](N3)[C@@H]12` [Compound 184, 3-Amino-5-((5S,5aS,6S,9R)-1-fluoro-12-(((2R,7aS)-2-fluorotetrahydro-1H-pyrrolizin-7a(5H)-yl)methoxy)-5-methyl-5a,6,7,8,9,10-hexahydro-5H-4-oxa-3,10a,11,13,14-pentaaza-6,9-methanonaphtho[1,8-ab]heptalene-2-yl)-1-methyl-6-(trifluoromethyl)pyridin-2(1H)-one] has a pIC50 (KRAS WT; read-out: KRas HTRF IC50) of 6.41 and a pIC50 (KRAS G12D) of 8.70.
`Cc1nc(N)cc(-c2nc3c4c(nc(OC[C@@]56CCCN5C[C@H](F)C6)nc4c2F)N2C[C@H]4CC[C@H](N4)[C@H]2[C@H](C)O3)c1CC(F)(F)F` [Compound 185, 4-((5S,5aS,6S,9R)-1-Fluoro-12-(((2R,7aS)-2-fluorotetrahydro-1H-pyrrolizin-7a(5H)-yl)methoxy)-5-methyl-5a,6,7,8,9,10-hexahydro-5H-4-oxa-3,10a,11,13,14-pentaaza-6,9-methanonaphtho[1,8-ab]heptalene-2-yl)-6-methyl-5-(2,2,2-trifluoromethyl)pyridin-2-amine] was tested, and the pIC50 (KRAS WT; read-out: KRas HTRF IC50) was 6.97 and the pIC50 (KRAS G12D) was 8.96.
Work on `C[C@@H]1Oc2nc(-c3cc(N)c(F)c(Cl)c3CC(F)F)c(F)c3nc(OC[C@@]45CCCN4C[C@H](F)C5)nc(c23)N2C[C@H]3CC[C@H](N3)[C@@H]12` [Compound 186, 3-Chloro-4-(2,2-difluoroethyl)-2-fluoro-5-((5S,5aS,6S,9R)-1-fluoro-12-(((2R,7aS)-2-fluorotetrahydro-1H-pyrrolizin-7a(5H)-yl)methoxy)-5-methyl-5a,6,7,8,9,10-hexahydro-5H-4-oxa-3,10a,11,13,14-pentaaza-6,9-methanonaphtho[1,8-ab]heptalene-2-yl)aniline] yielded a pIC50 (KRAS WT; read-out: KRas HTRF IC50) of 8.25 and a pIC50 (KRAS G12D) of 10.00.
Work on `C[C@@H]1Oc2nc(-c3cc(N)c(F)cc3CC(F)F)c(F)c3nc(OC[C@@]45CCCN4C[C@H](F)C5)nc(c23)N2C[C@H]3CC[C@H](N3)[C@@H]12` [Compound 187, 4-(2,2-Difluoroethyl)-2-fluoro-5-((5S,5aS,6S,9R)-1-fluoro-12-(((2R,7aS)-2-fluorotetrahydro-1H-pyrrolizin-7a(5H)-yl)methoxy)-5-methyl-5a,6,7,8,9,10-hexahydro-5H-4-oxa-3,10a,11,13,14-pentaaza-6,9-methanonaphtho[1,8-ab]heptalene-2-yl)aniline] yielded a pIC50 (KRAS WT; read-out: KRas HTRF IC50) of 6.79 and a pIC50 (KRAS G12D) of 9.29.
For `Cc1nc(N)cc(-c2nc3c4c(nc(OC[C@@]56CCCN5C[C@H](F)C6)nc4c2F)N2C[C@H]4CC[C@H](N4)[C@H]2[C@H](C)O3)c1OC(F)F` [Compound 188, 5-(Difluoromethoxy)-4-((5S,5aS,6S,9R)-1-fluoro-12-(((2R,7aS)-2-fluorotetrahydro-1H-pyrrolizin-7a(5H)-yl)methoxy)-5-methyl-5a,6,7,8,9,10-hexahydro-5H-4-oxa-3,10a,11,13,14-pentaaza-6,9-methanonaphtho[1,8-ab]heptalene-2-yl)-6-methylpyridin-2-amine], the pIC50 (KRAS WT; read-out: KRas HTRF IC50) was 6.65 and the pIC50 (KRAS G12D) was 8.90.
`Cc1nc(N)cc(-c2nc3c4c(nc(OC[C@@]56CCCN5C[C@H](F)C6)nc4c2F)N2C[C@H]4CC[C@H](N4)[C@H]2[C@H](C)O3)c1CC(F)F` [Compound 189, 5-(2,2-Difluoroethyl)-4-((5S,5aS,6S,9R)-1-fluoro-12-(((2R,7aS)-2-fluorotetrahydro-1H-pyrrolizin-7a(5H)-yl)methoxy)-5-methyl-5a,6,7,8,9,10-hexahydro-5H-4-oxa-3,10a,11,13,14-pentaaza-6,9-methanonaphtho[1,8-ab]heptalene-2-yl)-6-methylpyridin-2-amine] showed a pIC50 (KRAS WT; read-out: KRas HTRF IC50) of 6.60 and a pIC50 (KRAS G12D) of 8.64.
`C[C@@H]1Oc2nc(-c3cc(N)c(F)c(F)c3CC(F)F)c(F)c3nc(OC[C@@]45CCCN4C[C@H](F)C5)nc(c23)N2C[C@H]3CC[C@H](N3)[C@@H]12` [Compound 190, 4-(2,2-Difluoroethyl)-2,3-difluoro-5-((5S,5aS,6S,9R)-1-fluoro-12-(((2R,7aS)-2-fluorotetrahydro-1H-pyrrolizin-7a(5H)-yl)methoxy)-5-methyl-5a,6,7,8,9,10-hexahydro-5H-4-oxa-3,10a,11,13,14-pentaaza-6,9-methanonaphtho[1,8-ab]heptalene-2-yl)aniline] gave a pIC50 (KRAS WT; read-out: KRas HTRF IC50) of 8.00 and a pIC50 (KRAS G12D) of 9.96.
Molecule `Cc1c(F)c(N)nc(-c2nc3c4c(nc(OC[C@@]56CCCN5C[C@H](F)C6)nc4c2F)N2C[C@H]4CC[C@H](N4)[C@H]2[C@H](C)O3)c1C(F)(F)F` [Compound 191, 3-Fluoro-6-((5S,5aS,6S,9R)-1-fluoro-12-(((2R,7aS)-2-fluorotetrahydro-1H-pyrrolizin-7a(5H)-yl)methoxy)-5-methyl-5a,6,7,8,9,10-hexahydro-5H-4-oxa-3,10a,11,13,14-pentaaza-6,9-methanonaphtho[1,8-ab]heptalen-2-yl)-4-methyl-5-(trifluoromethyl)pyridin-2-amine] has a pIC50 (KRAS WT; read-out: KRas HTRF IC50) of 7.04 and a pIC50 (KRAS G12D) of 9.34.
